Patent US10988477B2 (Merck Patent GmbH, priority 2018, dated 2021)

Columns and labels:
[1] = target: intracellular GCN2 (phosphorylation of the GCN2 substrate eIF2α) (Homo sapiens, UniProt Q9P2K8); test: GCN2 cellular inhibition assay (AlphaScreen SureFire P-eIF2α Ser51, borrelidin-treated U2OS cells); assay type: cell-based; conditions: biomarker assay, phosphorylated eIF2α Ser51 in borrelidin-treated U2OS cells
Method in brief: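 Phospho-eIF2α (Ser51) in lysates was quantified by AlphaScreen SureFire after a 1 h, 37 °C treatment of U2OS cells with 10 μM borrelidin and compound at 4-fold dilutions starting from 40 μM final. Inhibition expressed in percent against wells stimulated by borrelidin alone.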

[2] = target: GCN2 kinase (Homo sapiens, UniProt Q9P2K8); test: GCN2 enzyme inhibition assay (Transcreener ADP2 fluorescence polarization); assay type: biochemical; conditions: 280 μM ATP
Method in brief: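 FP detection of ADP (antibody plus Alexa633 tracer) after a 1 h, 25 °C kinase reaction. Enzyme 4 nM, ATP 280 μM, (RS)7 peptide 200 μM, Tris pH 7.5 buffer with MgCl2 and DTT. Percent inhibition fitted by non-linear tight-binding algorithm for IC50 and Ki(app).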

[3] = compounds of Formula II, 4 nM GCN2 kinase
[4] = Enzyme activity for compounds of Formula IV, Ki(app), 25° C.

Sequence of GCN2 kinase (Q9P2K8 whole entry): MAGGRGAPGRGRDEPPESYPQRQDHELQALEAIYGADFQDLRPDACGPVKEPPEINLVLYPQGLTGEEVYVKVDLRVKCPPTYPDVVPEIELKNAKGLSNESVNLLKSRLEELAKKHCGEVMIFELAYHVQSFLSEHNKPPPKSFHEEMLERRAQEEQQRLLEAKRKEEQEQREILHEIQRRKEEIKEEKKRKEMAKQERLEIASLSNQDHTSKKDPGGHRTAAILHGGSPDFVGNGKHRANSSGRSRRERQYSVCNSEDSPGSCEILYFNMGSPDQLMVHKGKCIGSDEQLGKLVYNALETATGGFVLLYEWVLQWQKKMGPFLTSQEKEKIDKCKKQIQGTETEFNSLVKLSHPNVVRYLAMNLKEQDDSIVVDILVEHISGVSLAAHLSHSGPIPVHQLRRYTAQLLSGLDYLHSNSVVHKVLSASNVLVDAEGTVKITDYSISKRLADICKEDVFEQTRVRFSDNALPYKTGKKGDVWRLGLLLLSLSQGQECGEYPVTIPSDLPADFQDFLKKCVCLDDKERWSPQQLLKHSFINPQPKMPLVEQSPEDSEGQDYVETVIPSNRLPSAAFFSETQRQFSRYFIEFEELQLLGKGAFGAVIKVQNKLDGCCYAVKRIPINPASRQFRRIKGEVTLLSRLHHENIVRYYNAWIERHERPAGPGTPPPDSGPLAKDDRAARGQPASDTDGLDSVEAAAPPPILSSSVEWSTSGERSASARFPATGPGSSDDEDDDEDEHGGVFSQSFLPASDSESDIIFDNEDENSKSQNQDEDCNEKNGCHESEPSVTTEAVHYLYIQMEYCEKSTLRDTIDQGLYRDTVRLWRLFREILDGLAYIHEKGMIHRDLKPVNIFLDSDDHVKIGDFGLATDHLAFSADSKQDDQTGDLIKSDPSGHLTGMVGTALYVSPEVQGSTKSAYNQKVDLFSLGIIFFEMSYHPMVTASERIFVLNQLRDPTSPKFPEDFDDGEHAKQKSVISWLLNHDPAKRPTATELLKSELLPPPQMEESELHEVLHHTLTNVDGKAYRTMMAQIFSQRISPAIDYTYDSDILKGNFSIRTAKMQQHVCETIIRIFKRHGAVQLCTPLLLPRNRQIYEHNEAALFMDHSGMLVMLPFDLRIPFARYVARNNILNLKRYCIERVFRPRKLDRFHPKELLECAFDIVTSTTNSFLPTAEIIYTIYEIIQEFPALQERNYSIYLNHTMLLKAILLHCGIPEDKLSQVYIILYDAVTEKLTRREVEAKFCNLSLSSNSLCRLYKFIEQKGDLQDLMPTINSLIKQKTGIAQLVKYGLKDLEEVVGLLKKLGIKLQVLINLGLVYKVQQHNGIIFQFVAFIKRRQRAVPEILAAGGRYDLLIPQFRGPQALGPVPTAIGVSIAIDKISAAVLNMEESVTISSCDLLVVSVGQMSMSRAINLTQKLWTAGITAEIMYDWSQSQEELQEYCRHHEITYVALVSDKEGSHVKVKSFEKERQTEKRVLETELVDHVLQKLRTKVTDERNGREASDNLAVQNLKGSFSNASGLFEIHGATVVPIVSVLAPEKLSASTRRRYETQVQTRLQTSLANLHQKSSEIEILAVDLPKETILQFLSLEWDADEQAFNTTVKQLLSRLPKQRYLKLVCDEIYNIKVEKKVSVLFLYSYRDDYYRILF
Sequence of intracellular GCN2 (phosphorylation of the GCN2 substrate eIF2α) (Q9P2K8 whole entry): as above

Row | Structure (SMILES) | IC50 ([1]; compounds of Formula II) [nM] | Ki [2, 3] [nM] | IC50 ([1]; compounds of Formula IV) [nM] | Ki [2, 4] [nM]
1 | CS(=O)(=O)NC[C@H]1CCCN(c2cc(-c3cnc4ccc(C(F)F)nn34)ccn2)C1 [II-154, (S)—N-((1-(4-(6-(Difluoromethyl)imidazo[1,2-b]pyridazin-3-yl)pyridin-2-yl)piperidin-3-yl)methyl)methanesulfonamide] | < 500 | < 10 | – | –
2 | CS(=O)(=O)NCC1CN(c2cc(-c3cnc4ccc(C(F)F)nn34)ncn2)CC1O (stereo not drawn) [II-140, N-((1-(6-(6-(Difluoromethyl)imidazo[1,2-b]pyridazin-3-yl)pyrimidin-4-yl)-4-hydroxypyrrolidin-3-yl)methyl)methanesulfonamide] | > 5000 | 10 to 1000 | – | –
3 | CC1CN(c2cc(N=S(C)(C)=O)nc(-c3cnc4cnc(C(F)(F)F)cn34)n2)C(C)C(c2cn[nH]c2)N1 (stereo not drawn) [IV-648, ((6-(2,5-Dimethyl-3-(1H-pyrazol-4-yl)piperazin-1-yl)-2-(6-(trifluoromethyl)imidazo[1,2-a]pyrazin-3-yl)pyrimidin-4-yl)imino)dimethyl-λ^6-sulfanone] | – | – | 500 to 5000 | < 10
4 | C=Cc1cn2c(-c3nccc(N4CCN(C(C)=O)CC4)n3)cnc2cn1 [IV-37, 1-(4-(2-(6-Vinylimidazo[1,2-a]pyrazin-3-yl)pyrimidin-4-yl)piperazin-1-yl)ethan-1-one] | – | – | > 5000 | 100 to 1000
5 | CC1C(CNS(C)(=O)=O)C(F)(F)CCN1c1cc(-c2cnc3ccc(C(F)F)nn23)ncn1 (stereo not drawn) [II-431, N-((1-(6-(6-(Difluoromethyl)imidazo[1,2-b]pyridazin-3-yl)pyrimidin-4-yl)-4,4-difluoro-2-methylpiperidin-3-yl)methyl)methanesulfonamide] | < 500 | < 10 | – | –
6 | CS(=O)(=O)NCC1CN(c2cc(-c3cnc4ccc(C(F)F)nn34)ncn2)CC1O (stereo not drawn) [II-152, N-((1-(6-(6-(Difluoromethyl)imidazo[1,2-b]pyridazin-3-yl)pyrimidin-4-yl)-4-hydroxypyrrolidin-3-yl)methyl)methanesulfonamide] | > 5000 | 10 to 1000 | – | –
7 | FC(F)(F)c1cn2c(-c3nccc(N4CCC(c5c[nH]nc5C(F)(F)F)C4)n3)cnc2cn1 (single isomer, unassigned) [IV-628, 6-(Trifluoromethyl)-3-(4-(3-(3-(trifluoromethyl)-1H-pyrazol-4-yl)pyrrolidin-1-yl)pyrimidin-2-yl)imidazo[1,2-a]pyrazine] | – | – | 500 to 5000 | 10 to 100
8 | CS(C)(=O)=NC[C@@H]1CN(c2cc(-c3cnc4ccc(C(F)F)nn34)ccn2)CCO1 [II-102, [(2S)-4-[4-[6-(Difluoromethyl)imidazo[1,2-b]pyridazin-3-yl]-2-pyridyl]morpholin-2-yl]methylimino-dimethyl-oxo-sulfane] | > 5000 | 10 to 1000 | – | –
9 | CC1C(CNS(C)(=O)=O)C(F)(F)C(C)CN1c1cc(-c2cnc3ccc(C(F)F)nn23)ncn1 (stereo not drawn) [II-462, N-((1-(6-(6-(Difluoromethyl)imidazo[1,2-b]pyridazin-3-yl)pyrimidin-4-yl)-4,4-difluoro-2,5-dimethylpiperidin-3-yl)methyl)methanesulfonamide] | < 500 | < 10 | – | –
10 | CS(=O)(=O)NC1CCN(c2ccnc(-c3cnc4cnc(C(F)F)cn34)n2)C1 (stereo not drawn) [IV-70, N-(1-(2-(6-(Difluoromethyl)imidazo[1,2-a]pyrazin-3-yl)pyrimidin-4-yl)pyrrolidin-3-yl)methanesulfonamide] | – | – | > 5000 | 100 to 1000
11 | CC1CN(c2nccc(-c3cnc4cnc(C(F)(F)F)cn34)n2)CC(c2cn[nH]c2)O1 (single isomer, unassigned) [IV-202, 2-Methyl-6-(1H-pyrazol-4-yl)-4-(4-(6-(trifluoromethyl)imidazo[1,2-a]pyrazin-3-yl)pyrimidin-2-yl)morpholine] | – | – | 500 to 5000 | 10 to 100
12 | CC(=O)N1CCN(c2cc(-c3cnc4ccc(Cl)nn34)ccn2)CC1 [II-208, 1-(4-(4-(6-Chloroimidazo[1,2-b]pyridazin-3-yl)pyridin-2-yl)piperazin-1-yl)ethanone] | > 5000 | 10 to 1000 | – | –
13 | O=S(=O)(N[C@H]1CCCN(c2cc(-c3cnc4ccc(C(F)F)nn34)ncn2)C1)C1COC1 [II-419, (S)—N-(1-(6-(6-(Difluoromethyl)imidazo[1,2-b]pyridazin-3-yl)pyrimidin-4-yl)piperidin-3-yl)oxetane-3-sulfonamide] | 500 to 5000 | 10 to 1000 | – | –
14 | NS(=O)(=O)C1CCN(c2cc(-c3cnc4ccc(C(F)F)nn34)ncn2)C1 (stereo not drawn) [II-192, 1-(6-(6-(Difluoromethyl)imidazo[1,2-b]pyridazin-3-yl)pyrimidin-4-yl)pyrrolidine-3-sulfonamide] | > 5000 | 10 to 1000 | – | –
15 | CC1CN(c2nccc(-c3cnc4cnc(Cl)cn34)n2)C(C)C(c2cn[nH]c2)N1 (single isomer, unassigned) [IV-407, 6-Chloro-3-(2-(2,5-dimethyl-3-(1H-pyrazol-4-yl)piperazin-1-yl)pyrimidin-4-yl)imidazo[1,2-a]pyrazine] | – | – | 500 to 5000 | < 10
16 | O=C1OCC2CN(c3cc(-c4cnc5ccc(C(F)F)nn45)ccn3)CCN12 (stereo not drawn) [II-88, 7-(4-(6-(Difluoromethyl)imidazo[1,2-b]pyridazin-3-yl)pyridin-2-yl)tetrahydro-1H-oxazolo[3,4-a]pyrazin-3(5H)-one] | 500 to 5000 | 10 to 1000 | – | –
17 | O=S(=O)(NCC1CCCN(c2cc(-c3cnc4ccc(C(F)F)nn34)ncn2)C1)C1CNC1 (stereo not drawn) [II-272, N-((1-(6-(6-(Difluoromethyl)imidazo[1,2-b]pyridazin-3-yl)pyrimidin-4-yl)piperidin-3-yl)methyl)azetidine-3-sulfonamide] | > 5000 | 10 to 1000 | – | –
18 | NCC1CCCN(c2ccnc(-c3cnc4cnc(C(F)F)cn34)n2)C1 (stereo not drawn) [IV-143, (1-(2-(6-(Difluoromethyl)imidazo[1,2-a]pyrazin-3-yl)pyrimidin-4-yl)piperidin-3-yl)methanamine] | – | – | > 5000 | 100 to 1000
19 | CC1CN(c2ccnc(-c3cnc4cnc(Br)cn34)n2)CC(c2cn[nH]c2)N1 (single isomer, unassigned) [IV-365, 6-Bromo-3-(4-(3-methyl-5-(1H-pyrazol-4-yl)piperazin-1-yl)pyrimidin-2-yl)imidazo[1,2-a]pyrazine] | – | – | 500 to 5000 | < 10
20 | CC1C(C(N)=O)CCCN1c1ccnc(-c2cnc3cnc(C(F)(F)F)cn23)n1 (single isomer, unassigned) [IV-499, 2-Methyl-1-(2-(6-(trifluoromethyl)imidazo[1,2-a]pyrazin-3-yl)pyrimidin-4-yl)piperidine-3-carboxamide] | – | – | 500 to 5000 | < 10
21 | CS(=O)(=O)CCN1CCC(c2cc(-c3cnc4ccc(C(F)F)nn34)ncn2)C1 (stereo not drawn) [II-255, 6-(Difluoromethyl)-3-(6-(1-(2-(methylsulfonyl)ethyl)pyrrolidin-3-yl)pyrimidin-4-yl)imidazo[1,2-b]pyridazine] | > 5000 | 10 to 1000 | – | –
22 | CC(=O)N1CCN(c2cncc(-c3cnc4ccc(C(F)F)nn34)c2)CC1 [II-171, 1-(4-(5-(6-(Difluoromethyl)imidazo[12-b]pyridazin-3-yl)pyridin-3-yl)piperazin-1-yl)ethanone] | 500 to 5000 | 10 to 1000 | – | –
23 | CC1CN(c2cc(-c3cnc4ccc(C(F)F)nn34)ncn2)CC(CNS(C)(=O)=O)C1(F)F (stereo not drawn) [II-35, N-((1-(6-(6-(Difluoromethyl)imidazo[1,2-b]pyridazin-3-yl)pyrimidin-4-yl)-4,4-difluoro-5-methylpiperidin-3-yl)methyl)methanesulfonamide] | 500 to 5000 | 10 to 1000 | – | –
24 | OC1CCN(c2ccnc(-c3cnc4cnc(C(F)F)cn34)n2)C1 (stereo not drawn) [IV-72, 1-(2-(6-(Difluoromethyl)imidazo[1,2-a]pyrazin-3-yl)pyrimidin-4-yl)pyrrolidin-3-ol] | – | – | > 5000 | 100 to 1000
25 | CS(=O)(=O)NCC1CCCN(c2cc(-c3cnc4ccc(C(F)F)nn34)ccc2C#N)C1 (stereo not drawn) [II-82, N-((1-(2-Cyano-5-(6-(difluoromethyl)imidazo[1,2-b]pyridazin-3-yl)phenyl)piperidin-3-yl)methyl)methanesulfonamide] | 500 to 5000 | 10 to 1000 | – | –
26 | FC(F)(F)c1cn2c(-c3nccc(N4CCCCC4)n3)cnc2cn1 [IV-423, 3-(4-(Piperidin-1-yl)pyrimidin-2-yl)-6-(trifluoromethyl)imidazo[1,2-a]pyrazine] | – | – | > 5000 | 100 to 1000
27 | CC1C(c2cn[nH]c2)OCCN1c1ccnc(-c2cnc3cnc(C(F)(F)F)cn23)n1 (single isomer, unassigned) [IV-318, 3-Methyl-2-(1H-pyrazol-4-yl)-4-(2-(6-(trifluoromethyl)imidazo[1,2-a]pyrazin-3-yl)pyrimidin-4-yl)morpholine] | – | – | < 500 | < 10
28 | C[C@@H]1CN(c2ccnc(-c3cnc4cnc(Br)cn34)n2)C[C@H](c2cn[nH]c2)N1 (racemic) [IV-344, Cis-6-Bromo-3-(4-(3-methyl-5-(1H-pyrazol-4-yl)piperazin-1-yl)pyrimidin-2-yl)imidazo[1,2-a]pyrazine] | – | – | 500 to 5000 | 10 to 100
29 | Cc1cnc(N2CCCC(CNS(C)(=O)=O)C2)cc1-c1cnc2ccc(C(F)F)nn12 (stereo not drawn) [II-733, N-((1-(4-(6-(difluoromethyl)imidazo[1,2-b]pyridazin-3-yl)-5-methylpyridin-2-yl)piperidin-3-yl)methyl)methanesulfonamide] | > 5000 | > 1000 | – | –
30 | Brc1cn2c(-c3nccc(N4CCOC(c5cn[nH]c5)C4)n3)cnc2cn1 (stereo not drawn) [IV-19, 4-(2-(6-Bromoimidazo[1,2-a]pyrazin-3-yl)pyrimidin-4-yl)-2-(1H-pyrazol-4-yl)morpholine] | – | – | < 500 | < 10
